Experimental data reported in patent US7402548B2, “Benzoxazole compounds, process for producing the same and herbicides” (Kyoyu Agri Co., Ltd., priority 2000, dated 2008).

Assays:
annual bluegrass [1] = assay: Soil treatment test for upland field; type: in vivo, Poa annua; parameters: key: 0 = normal development, 5 = all killed; conditions: 500 g/ha, 3 weeks, glass house 25° C.
Protocol: (§1) The herbicidal effects are evaluated according to the following 6 ranks as compared with non-treated district. (0: normal development, 1: Less damaged, 2: Slightly damaged, 3: Moderately damaged, 4: Severely damaged, 5: All killed). Incidentally, “-” in the column means not investigated.
(§2) Wagner pots, each having an area of 1/5000 are, were packed with Ube soil (alluvial soil), and then each seed of corn, soybean, cotton, wheat, solgum, sugar beat, Large crabgrass, barnyard grass, green foxtail, blackgrass, annual bluegrass, common lambsquarters, livid amaranth, velvetleaf, morning glory, common Cocklebur (Xanthium strumarium) and sicklepod (Cassia obtusifolia) were planted and covered with soil.
(§3) Each wettable powder of the desired compounds (I) shown in Tables 1 to 21, 24, 25, 28 and 29 prepared in accordance with Example 2 was diluted with water containing a surfactant (0.05%) and uniformly sprayed on the surface of each soil so that an effective concentration of the compound (I) in each herbicide became 500 g/ha.
(§4) These plants were controlled in a glass house at an average temperature of 25° C. for 3 weeks, and then herbicidal effects thereof were investigated.
(§5) The herbicidal effects were evaluated according to the evaluation method described in the above (1).

morning glory [2] = assay: Soil treatment test for upland field; type: in vivo, Ipomoea spps.; parameters: key: 0 = normal development, 5 = all killed; conditions: 500 g/ha, 3 weeks, glass house 25° C.
Protocol: as §1, §2, §3, §4, §5

livid amaranth [3] = assay: Soil treatment test for upland field; type: in vivo, Amaranthus lividus; parameters: key: 0 = normal development, 5 = all killed; conditions: 500 g/ha, 3 weeks, glass house 25° C.
Protocol: as §1, §2, §3, §4, §5

wheat [4] = assay: Soil treatment test for upland field; type: in vivo; parameters: key: 0 = normal development, 5 = all killed; conditions: 500 g/ha, 3 weeks, glass house 25° C.
Protocol: as §1, §2, §3, §4, §5

corn [5] = assay: Soil treatment test for upland field; type: in vivo; parameters: key: 0 = normal development, 5 = all killed; conditions: 500 g/ha, 3 weeks, glass house 25° C.
Protocol: as §1, §2, §3, §4, §5

solgum [6] = assay: Soil treatment test for upland field; type: in vivo; parameters: key: 0 = normal development, 5 = all killed; conditions: 500 g/ha, 3 weeks, glass house 25° C.
Protocol: as §1, §2, §3, §4, §5

sugar beat [7] = assay: Soil treatment test for upland field; type: in vivo; parameters: key: 0 = normal development, 5 = all killed; conditions: 500 g/ha, 3 weeks, glass house 25° C.
Protocol: as §1, §2, §3, §4, §5

annual bluegrass [8] = assay: Foliar spread test for upland field; type: in vivo, Poa annua; parameters: key: 0 = normal development, 5 = all killed (6 ranks vs. untreated); conditions: foliar spray, 500 ppm, 3 weeks, glass house 25° C.
Protocol: as §1
(§6) Wagner pots, each having an area of 1/5000 are, were packed with volcanic ash soil and then each seed of corn, soybean, cotton, wheat, solgum, sugar beat, Large crabgrass, barnyardgrjass, green foxtail, blackgrass, annual bluegrass, common lambsquarters, livid amaranth, velvetleaf, morning glory, Xanthium pensylvanicum and Cassia obtusifolia was planted, covered with soil and grown in a glass house at an average temperature of 25° C. for about 2 weeks.
(§7) Each wettable powder of the desired compounds (I) shown in Tables 1 to 21, 24, 25, 28 and 29 prepared in accordance with Example 2 was diluted to 500 ppm with water containing a surfactant (0.5%) and then uniformly sprayed on the above respective plants.
(§8) After these plants were controlled in a glass house at an average temperature of 25° C. for 3 weeks, the herbicidal effects thereof were investigated.
as §5

livid amaranth [9] = assay: Foliar spread test for upland field; type: in vivo, Amaranthus lividus; parameters: key: 0 = normal development, 5 = all killed (6 ranks vs. untreated); conditions: foliar spray, 500 ppm, 3 weeks, glass house 25° C.
Protocol: as §1, §6, §7, §8, §5

blackgrass [10] = assay: Foliar spread test for upland field; type: in vivo, Alopecurus aegualis; parameters: key: 0 = normal development, 5 = all killed (6 ranks vs. untreated); conditions: foliar spray, 500 ppm, 3 weeks, glass house 25° C.
Protocol: as §1, §6, §7, §8, §5

blackgrass [11] = assay: Soil treatment test for upland field; type: in vivo, Alopecurus aegualis; parameters: key: 0 = normal development, 5 = all killed; conditions: 500 g/ha, 3 weeks, glass house 25° C.
Protocol: as §1, §2, §3, §4, §5

wheat [12] = assay: Foliar spread test for upland field; type: in vivo; parameters: key: 0 = normal development, 5 = all killed (6 ranks vs. untreated); conditions: foliar spray, 500 ppm, 3 weeks, glass house 25° C.
Protocol: as §1, §6, §7, §8, §5

corn [13] = assay: Foliar spread test for upland field; type: in vivo; parameters: key: 0 = normal development, 5 = all killed (6 ranks vs. untreated); conditions: foliar spray, 500 ppm, 3 weeks, glass house 25° C.
Protocol: as §1, §6, §7, §8, §5

solgum [14] = assay: Foliar spread test for upland field; type: in vivo; parameters: key: 0 = normal development, 5 = all killed (6 ranks vs. untreated); conditions: foliar spray, 500 ppm, 3 weeks, glass house 25° C.
Protocol: as §1, §6, §7, §8, §5

soybean = assay: Foliar spread test for upland field; type: in vivo; parameters: key: 0 = normal development, 5 = all killed (6 ranks vs. untreated); conditions: foliar spray, 500 ppm, 3 weeks, glass house 25° C.
Protocol: as §1, §6, §7, §8, §5

cotton = assay: Foliar spread test for upland field; type: in vivo; parameters: key: 0 = normal development, 5 = all killed (6 ranks vs. untreated); conditions: foliar spray, 500 ppm, 3 weeks, glass house 25° C.
Protocol: as §1, §6, §7, §8, §5

sugar beat [15] = assay: Foliar spread test for upland field; type: in vivo; parameters: key: 0 = normal development, 5 = all killed (6 ranks vs. untreated); conditions: foliar spray, 500 ppm, 3 weeks, glass house 25° C.
Protocol: as §1, §6, §7, §8, §5

green foxtail [16] = assay: Foliar spread test for upland field; type: in vivo, Setaria viridis; parameters: key: 0 = normal development, 5 = all killed (6 ranks vs. untreated); conditions: foliar spray, 500 ppm, 3 weeks, glass house 25° C.
Protocol: as §1, §6, §7, §8, §5

morning glory [17] = assay: Foliar spread test for upland field; type: in vivo, Ipomoea spps.; parameters: key: 0 = normal development, 5 = all killed (6 ranks vs. untreated); conditions: foliar spray, 500 ppm, 3 weeks, glass house 25° C.
Protocol: as §1, §6, §7, §8, §5

Large crabgrass [18] = assay: Foliar spread test for upland field; type: in vivo, Digitaria adscendens; parameters: key: 0 = normal development, 5 = all killed (6 ranks vs. untreated); conditions: foliar spray, 500 ppm, 3 weeks, glass house 25° C.
Protocol: as §1, §6, §7, §8, §5

green foxtail [19] = assay: Soil treatment test for upland field; type: in vivo, Setaria viridis; parameters: key: 0 = normal development, 5 = all killed; conditions: 500 g/ha, 3 weeks, glass house 25° C.
Protocol: as §1, §2, §3, §4, §5

barnyard grass = assay: Soil treatment test for upland field; type: in vivo, Eschinochloa crusgalli; parameters: key: 0 = normal development, 5 = all killed; conditions: 500 g/ha, 3 weeks, glass house 25° C.
Protocol: as §1, §2, §3, §4, §5

velvetleaf [20] = assay: Soil treatment test for upland field; type: in vivo, Abutilon theophrasti; parameters: key: 0 = normal development, 5 = all killed; conditions: 500 g/ha, 3 weeks, glass house 25° C.
Protocol: as §1, §2, §3, §4, §5

Large crabgrass [21] = assay: Soil treatment test for upland field; type: in vivo, Digitaria adscendens; parameters: key: 0 = normal development, 5 = all killed; conditions: 500 g/ha, 3 weeks, glass house 25° C.
Protocol: as §1, §2, §3, §4, §5

common lambsquarters [22] = assay: Foliar spread test for upland field; type: in vivo, Chenopodium album; parameters: key: 0 = normal development, 5 = all killed (6 ranks vs. untreated); conditions: foliar spray, 500 ppm, 3 weeks, glass house 25° C.
Protocol: as §1, §6, §7, §8, §5

barnyardgrjass = assay: Foliar spread test for upland field; type: in vivo, Eschinochloa crusgalli; parameters: key: 0 = normal development, 5 = all killed (6 ranks vs. untreated); conditions: foliar spray, 500 ppm, 3 weeks, glass house 25° C.
Protocol: as §1, §6, §7, §8, §5

common lambsquarters [23] = assay: Soil treatment test for upland field; type: in vivo, Chenopodium album; parameters: key: 0 = normal development, 5 = all killed; conditions: 500 g/ha, 3 weeks, glass house 25° C.
Protocol: as §1, §2, §3, §4, §5

velvetleaf [24] = assay: Foliar spread test for upland field; type: in vivo, Abutilon theophrasti; parameters: key: 0 = normal development, 5 = all killed (6 ranks vs. untreated); conditions: foliar spray, 500 ppm, 3 weeks, glass house 25° C.
Protocol: as §1, §6, §7, §8, §5

SMILES | Effects Annual bluegrass (annual bluegrass [1]) | Effects Morning glory (morning glory [2]) | Effects Livid amaranth (livid amaranth [3]) | Effects Wheat (wheat [4]) | Effects Corn (corn [5]) | Effects Solgum (solgum [6]) | Effects Annual bluegrass (annual bluegrass [8]) | Effects Livid amaranth (livid amaranth [9]) | Effects Blackgrass (blackgrass [10]) | Effects Blackgrass (blackgrass [11]) | Effects Wheat (wheat [12]) | Effects Corn (corn [13]) | Effects Solgum (solgum [14]) | Effects Soybean (soybean) | Effects Sotton (cotton) | Effects Sugar beat (sugar beat [15]) | Effects Green foxtail (green foxtail [16]) | Effects Morning glory (morning glory [17]) | Effects Large crabgrass (Large crabgrass [18]) | Effects Green foxtail (green foxtail [19]) | other results
CCC(=Cc1cccc(C(F)(F)F)c1)c1nc2ccc([N+](=O)[O-])cc2o1 [I-c-15] | 5 | 2 | 5 | 1 | 1 | 1 | 4 | 5 | 3 | 5 | 2 | 2 | 2 | 5 | 3 | 4 | 4 | 5 | 4 | 5 | Effects Sugar beat (sugar beat [7]): 2; Effects Barnyardgrass (barnyard grass): 4; Effects Velvetleaf (velvetleaf [20]): 2; Effects Large crabgrass (Large crabgrass [21]): 5; Effects Common lambsquarters (common lambsquarters [22]): 5; Effects Barnyardgrass (barnyardgrjass): 3; Effects Common lambsquarters (common lambsquarters [23]): 5; Effects Velvetleaf (velvetleaf [24]): 3
CC(=Cc1cccc(C(F)(F)F)c1)c1nc2cc(F)ccc2o1 [I-c-40] | 5 | 3 | 5 | 0 | 0 | 2 | 2 | 4 | 2 | 4 | 1 | 2 | 1 | 4 | 1 | 4 | 2 | 3 | 3 | 5 | Effects Sugar beat (sugar beat [7]): 1; Effects Barnyardgrass (barnyard grass): 5; Effects Large crabgrass (Large crabgrass [21]): 5; Effects Common lambsquarters (common lambsquarters [22]): 4; Effects Barnyardgrass (barnyardgrjass): 1; Effects Common lambsquarters (common lambsquarters [23]): 5; Effects Velvetleaf (velvetleaf [24]): 1
CCCC(=Cc1cccc(C(F)(F)F)c1)c1nc2cc(F)ccc2o1 [I-c-44] | 5 | 2 | 5 | 2 | 2 | 3 | 4 | 5 | 3 | 5 | 2 | 2 | 2 | 5 | 3 | 3 | 4 | 5 | 4 | 5 | Effects Sugar beat (sugar beat [7]): 5; Effects Barnyardgrass (barnyard grass): 5; Effects Velvetleaf (velvetleaf [20]): 3; Effects Large crabgrass (Large crabgrass [21]): 5; Effects Common lambsquarters (common lambsquarters [22]): 5; Effects Barnyardgrass (barnyardgrjass): 2; Effects Common lambsquarters (common lambsquarters [23]): 5; Effects Velvetleaf (velvetleaf [24]): 2
CC(=Cc1cccc(C(F)(F)F)c1)c1nc2cc(Cl)ccc2o1 [I-c-53] | 5 | 2 | 5 | 1 | 1 | 0 | 4 | 5 | 4 | 5 | 1 | 3 | 1 | 4 | 3 | 5 | 5 | 5 | 4 | 5 | Effects Sugar beat (sugar beat [7]): 5; Effects Barnyardgrass (barnyard grass): 5; Effects Velvetleaf (velvetleaf [20]): 1; Effects Large crabgrass (Large crabgrass [21]): 5; Effects Common lambsquarters (common lambsquarters [22]): 5; Effects Barnyardgrass (barnyardgrjass): 1; Effects Common lambsquarters (common lambsquarters [23]): 5; Effects Velvetleaf (velvetleaf [24]): 3
CCCC(=Cc1cccc(C(F)(F)F)c1)c1nc2cc(Cl)ccc2o1 [I-c-57] | 5 | 3 | 5 | 2 | 2 | 2 | 4 | 4 | 3 | 5 | 2 | 2 | 2 | 5 | 4 | 3 | 5 | 5 | 4 | 5 | Effects Barnyardgrass (barnyard grass): 5; Effects Velvetleaf (velvetleaf [20]): 5; Effects Large crabgrass (Large crabgrass [21]): 5; Effects Common lambsquarters (common lambsquarters [22]): 5; Effects Barnyardgrass (barnyardgrjass): 3; Effects Common lambsquarters (common lambsquarters [23]): 5; Effects Velvetleaf (velvetleaf [24]): 3
CCC(=Cc1cccc(C(F)(F)F)c1)c1nc2cc(Br)ccc2o1 [I-c-67] | 5 | 4 | 5 | 1 | 2 | 5 | 4 | 5 | 4 | 5 | 2 | 3 | 3 | 5 | 5 | 4 | 4 | 5 | 4 | 5 | Effects Sugar beat (sugar beat [7]): 5; Effects Barnyardgrass (barnyard grass): 5; Effects Velvetleaf (velvetleaf [20]): 5; Effects Large crabgrass (Large crabgrass [21]): 5; Effects Common lambsquarters (common lambsquarters [22]): 5; Effects Barnyardgrass (barnyardgrjass): 3; Effects Common lambsquarters (common lambsquarters [23]): 5; Effects Velvetleaf (velvetleaf [24]): 4
